Source: patent publication US6691045B1, “Method for determining discrete quantitative structure activity relationships” (Chemical Computing Group Inc., priority 1998, dated 2004)

Key:
[1] = target: T1, Carbonic Anhydrase II receptor (Homo sapiens, UniProt P00918); test: binding affinity to Carbonic Anhydrase II, from scientific literature; conditions: threshold value 5.85
From the text: Each compound is given a numerical value indicating its binding affinity. Beside each drawing in Table 1, is a quantitative experimental assessment of binding affinity.
Otherwise, it would be 1.

[2] = target: T1, Carbonic Anhydrase II receptor; conditions: example initial data set; cited from earlier work
estrogen receptor = conditions: relative binding affinity scale, estradiol = 100; binding at 0 to 4° C.; presumed ER-α; cited from earlier work

Compound | CLASS (activity class, active/inactive) ([1]; structures as SMILES) | CLASS (activity class, active/inactive) ([1]; structures as drawings) | ACTIVITY (quantitative experimental assessment of binding affinity) [2] | log RBA (estrogen receptor)
CC(=O)Nc1nnc(S(=O)(=O)NC(C)C)s1 | 0 (If the activity value is less than 5.85, the activity class is 0) | 0 (If the activity value is less than 5.85, the activity class is 0) | 5.80 | 
CNS(=O)(=O)c1cccc(O)c1 | 1 (Otherwise, it would be 1) | 1 (Otherwise, it would be 1) | 5.92 | 
CC/C(=C(/CC)c1ccc(O)cc1)c1ccc(O)cc1 [DES, desthylstilbestrol] |  |  |  | 2.48
